Patent publication US20240050428A1 (Cullgen (Shanghai), Inc., priority 2020, published 2024)
Read-outs that look alike come from different tables or passages of the source.

Experiments:
MV4;11 cells = assay: Cell viability assay (CellTiter-Glo) in MV4;11 cells, alone or with gilteritinib; type: cell-based; conditions: Homo sapiens, MV4-11, 72 h, MV4;11 cells, three days, CellTiter-Glo, read-out: MV4
MOLM-13 cells = assay: Cell viability assay (CellTiter-Glo) in MOLM-13 cells, alone or with gilteritinib; type: cell-based; conditions: Homo sapiens, MOLM-13, 72 h, MOLM-13 cells, three days, CellTiter-Glo
[1] = compound alone (without gilteritinib), 11 IC50
[2] = with gilteritinib 10 nM, 11 IC50 gilteritinib
[3] = compound alone (without gilteritinib), read-out: MOLM-13 IC50
[4] = with gilteritinib 20 nM, read-out: MOLM-13 IC50 gilteritinib

Row | Structure (SMILES) | IC50 (MV4;11 cells; [1]) [nM] | IC50 (MV4;11 cells; [2]) [nM] | IC50 (MOLM-13 cells; [3]) [nM] | IC50 (MOLM-13 cells; [4]) [nM]
1 | O=C1CCC(N2C(=O)c3ccc(NC[C@H]4C[C@H](n5cc(-c6nccc7[nH]ccc67)c(C6CC6)n5)C4)cc3C2=O)C(=O)N1 (stereo partly drawn) [GS-278, 5-(((trans-3-(3-Cyclopropyl-4-(1H-pyrrolo[3,2-c]pyridin-4-yl)-1H-pyrazol-1-yl)cyclobutyl)methyl)amino)-2-(2,6-dioxopiperidin-3-yl)isoindoline-1,3-dione] | < 10 | < 10 | 10 to 100 | < 10
2 | O=C1CCC(N2C(=O)c3ccc(NC[C@H]4C[C@H](n5cc(-c6cc7cc[nH]c7cn6)c(C6CC6)n5)C4)cc3C2=O)C(=O)N1 (stereo partly drawn) [GS-279, 5-(((trans-3-(3-Cyclopropyl-4-(1H-pyrrolo[2,3-c]pyridin-5-yl)-1H-pyrazol-1-yl)cyclobutyl)methyl)amino)-2-(2,6-dioxopiperidin-3-yl)isoindoline-1,3-dione] | 100 to 1000 | 10 to 100 | > 1000 | 10 to 100
3 | O=C1CCC(N2C(=O)c3ccc(NC[C@H]4C[C@H](n5cc(-c6nccc7cnccc67)c(C6CC6)n5)C4)cc3C2=O)C(=O)N1 (stereo partly drawn) [GS-280, 5-(((trans-3-(3-Cyclopropyl-4-(2,6-naphthyridin-1-yl)-1H-pyrazol-1-yl)cyclobutyl)methyl)amino)-2-(2,6-dioxopiperidin-3-yl)isoindoline-1,3-dione] | < 10 | < 10 | < 10 | < 10
4 | O=C1CCC(N2C(=O)c3ccc(NC[C@H]4C[C@H](n5cc(-c6nccc7ncccc67)c(C6CC6)n5)C4)cc3C2=O)C(=O)N1 (stereo partly drawn) [GS-281, 5-(((trans-3-(3-Cyclopropyl-4-(1,6-naphthyridin-5-yl)-1H-pyrazol-1-yl)cyclobutyl)methyl)amino)-2-(2,6-dioxopiperidin-3-yl)isoindoline-1,3-dione] | < 10 | < 10 | 10 to 100 | < 10
5 | O=C1CCC(N2C(=O)c3ccc(NC[C@H]4C[C@H](n5cc(-c6cc7[nH]ccc7cn6)c(C6CC6)n5)C4)cc3C2=O)C(=O)N1 (stereo partly drawn) [GS-282, 5-(((trans-3-(3-Cyclopropyl-4-(1H-pyrrolo[3,2-c]pyridin-6-yl)-1H-pyrazol-1-yl)cyclobutyl)methyl)amino)-2-(2,6-dioxopiperidin-3-yl)isoindoline-1,3-dione] | 10 to 100 | < 10 | 100 to 1000 | 10 to 100
6 | O=C1CCC(N2C(=O)c3ccc(NC[C@H]4C[C@H](n5cc(-c6ccc(F)cn6)c(C6CC6)n5)C4)cc3C2=O)C(=O)N1 (stereo partly drawn) [GS-283, 5-(((trans-3-(3-Cyclopropyl-4-(5-fluoropyridin-2-yl)-1H-pyrazol-1-yl)cyclobutyl)methyl)amino)-2-(2,6-dioxopiperidin-3-yl)isoindoline-1,3-dione] | 100 to 1000 | 10 to 100 | > 1000 | 10 to 100
7 | O=C1CCC(N2C(=O)c3ccc(NC[C@H]4C[C@H](n5cc(-c6nccc7ccncc67)c(C6CC6)n5)C4)cc3C2=O)C(=O)N1 (stereo partly drawn) [GS-284, 5-(((trans-3-(3-Cyclopropyl-4-(2,7-naphthyridin-1-yl)-1H-pyrazol-1-yl)cyclobutyl)methyl)amino)-2-(2,6-dioxopiperidin-3-yl)isoindoline-1,3-dione] | < 10 | < 10 | < 10 | < 10
8 | O=C1CCC(N2C(=O)c3ccc(NC[C@H]4C[C@H](n5cc(-c6cc7nccnc7cn6)c(C6CC6)n5)C4)cc3C2=O)C(=O)N1 (stereo partly drawn) [GS-285, 5-(((trans-3-(3-Cyclopropyl-4-(pyrido[3,4-b]pyrazin-7-yl)-1H-pyrazol-1-yl)cyclobutyl)methyl)amino)-2-(2,6-dioxopiperidin-3-yl)isoindoline-1,3-dione] | 10 to 100 | < 10 | 100 to 1000 | 10 to 100
9 | O=C1CCC(N2C(=O)c3ccc(NC[C@H]4C[C@H](n5cc(-c6nccc7cccnc67)c(C6CC6)n5)C4)cc3C2=O)C(=O)N1 (stereo partly drawn) [GS-286, 5-(((trans-3-(3-Cyclopropyl-4-(1,7-naphthyridin-8-yl)-1H-pyrazol-1-yl)cyclobutyl)methyl)amino)-2-(2,6-dioxopiperidin-3-yl)isoindoline-1,3-dione] | < 10 | < 10 | < 10 | < 10
10 | O=C1CCC(N2C(=O)c3ccc(NC[C@H]4C[C@H](n5cc(-c6ncccc6OC(F)(F)F)c(C6CC6)n5)C4)cc3C2=O)C(=O)N1 (stereo partly drawn) [GS-287, 5-(((trans-3-(3-Cyclopropyl-4-(3-(trifluoromethoxy)pyridin-2-yl)-1H-pyrazol-1-yl)cyclobutyl)methyl)amino)-2-(2,6-dioxopiperidin-3-yl)isoindoline-1,3-dione] | < 10 | < 10 | < 10 | < 10
11 | O=C1CCC(N2C(=O)c3ccc(NC[C@H]4C[C@H](n5cc(-c6cc7[nH]ncc7cn6)c(C6CC6)n5)C4)cc3C2=O)C(=O)N1 (stereo partly drawn) [GS-288, 5-(((trans-3-(3-Cyclopropyl-4-(1H-pyrazolo[4,3-c]pyridin-6-yl)-1H-pyrazol-1-yl)cyclobutyl)methyl)amino)-2-(2,6-dioxopiperidin-3-yl)isoindoline-1,3-dione] | 100 to 1000 | 10 to 100 | 100 to 1000 | 10 to 100
12 | O=C1CCC(N2C(=O)c3ccc(NC[C@H]4C[C@H](n5cc(-c6ccccc6F)c(C6CC6)n5)C4)cc3C2=O)C(=O)N1 (stereo partly drawn) [GS-289, 5-(((trans-3-(3-Cyclopropyl-4-(2-fluorophenyl)-1H-pyrazol-1-yl)cyclobutyl)methyl)amino)-2-(2,6-dioxopiperidin-3-yl)isoindoline-1,3-dione] | 10 to 100 | < 10 | 100 to 1000 | 10 to 100
13 | O=C1CCC(N2C(=O)c3ccc(NC[C@H]4C[C@H](n5cc(-c6cc(F)ccn6)c(C6CC6)n5)C4)cc3C2=O)C(=O)N1 (stereo partly drawn) [GS-290, 5-(((trans-3-(3-Cyclopropyl-4-(4-fluoropyridin-2-yl)-1H-pyrazol-1-yl)cyclobutyl)methyl)amino)-2-(2,6-dioxopiperidin-3-yl)isoindoline-1,3-dione] | > 1000 | 10 to 100 | > 1000 | 100 to 1000
14 | O=C1CCC(N2C(=O)c3ccc(NC[C@H]4C[C@H](n5cc(-c6nccc7cc[nH]c67)c(C6CC6)n5)C4)cc3C2=O)C(=O)N1 (stereo partly drawn) [GS-291, 5-(((trans-3-(3-Cyclopropyl-4-(1H-pyrrolo[2,3-c]pyridin-7-yl)-1H-pyrazol-1-yl)cyclobutyl)methyl)amino)-2-(2,6-dioxopiperidin-3-yl)isoindoline-1,3-dione] | > 1000 | 10 to 100 | > 1000 | 10 to 100
15 | CN1CC(Nc2cccc(-c3cn([C@H]4C[C@H](CNc5ccc6c(c5)C(=O)N(C5CCC(=O)NC5=O)C6=O)C4)nc3C3CC3)n2)C1 (stereo partly drawn) [GS-292, 5-(((trans-3-(3-Cyclopropyl-4-(6-((1-methylazetidin-3-yl)amino)pyridin-2-yl)-1H-pyrazol-1-yl)cyclobutyl)methyl)amino)-2-(2,6-dioxopiperidin-3-yl)isoindoline-1,3-dione] | > 1000 | > 1000 | > 1000 | > 1000
16 | O=C1CCC(N2C(=O)c3ccc(NC[C@H]4C[C@H](n5cc(-c6cc7cn[nH]c7cn6)c(C6CC6)n5)C4)cc3C2=O)C(=O)N1 (stereo partly drawn) [GS-293, 5-(((trans-3-(3-Cyclopropyl-4-(1H-pyrazolo[3,4-c]pyridin-5-yl)-1H-pyrazol-1-yl)cyclobutyl)methyl)amino)-2-(2,6-dioxopiperidin-3-yl)isoindoline-1,3-dione] | 100 to 1000 | 10 to 100 | > 1000 | 100 to 1000
17 | O=C1CCC(N2C(=O)c3ccc(NC[C@H]4C[C@H](n5cc(-c6cc(NC7CCNCC7)ccn6)c(C6CC6)n5)C4)cc3C2=O)C(=O)N1 (stereo partly drawn) [GS-294, 5-(((trans-3-(3-Cyclopropyl-4-(4-(piperidin-4-ylamino)pyridin-2-yl)-1H-pyrazol-1-yl)cyclobutyl)methyl)amino)-2-(2,6-dioxopiperidin-3-yl)isoindoline-1,3-dione] | > 1000 | > 1000 | > 1000 | > 1000
18 | CN1CCC(Nc2ccnc(-c3cn([C@H]4C[C@H](CNc5ccc6c(c5)C(=O)N(C5CCC(=O)NC5=O)C6=O)C4)nc3C3CC3)c2)CC1 (stereo partly drawn) [GS-295, 5-(((trans-3-(3-Cyclopropyl-4-(4-((1-methylpiperidin-4-yl)amino)pyridin-2-yl)-1H-pyrazol-1-yl)cyclobutyl)methyl)amino)-2-(2,6-dioxopiperidin-3-yl)isoindoline-1,3-dione] | > 1000 | > 1000 | > 1000 | > 1000
19 | O=C1CCC(N2C(=O)c3ccc(NC[C@H]4C[C@H](n5cc(-c6ncccc6F)c(C6CC6)n5)C4)cc3C2=O)C(=O)N1 (stereo partly drawn) [GS-296, 5-(((trans-3-(3-Cyclopropyl-4-(3-fluoropyridin-2-yl)-1H-pyrazol-1-yl)cyclobutyl)methyl)amino)-2-(2,6-dioxopiperidin-3-yl)isoindoline-1,3-dione] | 10 to 100 | 10 to 100 | 100 to 1000 | 10 to 100
20 | O=C1CCC(N2C(=O)c3ccc(NC[C@H]4C[C@H](n5cc(-c6ccc(N7CCNCC7)cn6)c(C6CC6)n5)C4)cc3C2=O)C(=O)N1 (stereo partly drawn) [GS-297, 5-(((trans-3-(3-Cyclopropyl-4-(5-(piperazin-1-yl)pyridin-2-yl)-1H-pyrazol-1-yl)cyclobutyl)methyl)amino)-2-(2,6-dioxopiperidin-3-yl)isoindoline-1,3-dione] | > 1000 | > 1000 | > 1000 | > 1000
